The structures appear in SMILES notation. Where two headings read alike, the source gives them in different places.

One series deals with human SGLT2 (Homo sapiens (Human), UniProt P31639). In words: Inhibitory effects on human SGLT2 activities (14C-AMG uptake in CHO cells expressing hSGLT2). The class given is cell-based. The following applies: CHO cells stably expressing hSGLT2, 37° C., 2 h. The protocol: Human SGLT2 (hSGLT2) gene was amplified by PCR from cDNA-Human Adult Normal Tissue Kidney (Invitrogen). The hSGLT2 sequence was cloned into pcDNA3.1(+) for mammalian expression and were stably transfected into chinese hamster ovary (CHO) cells. SGLT2-expressing clones were selected based on resistance to G418 antibiotic (Geneticin) and activity in the ^14C-α-methyl-D-glucopyranoside (^14C-AMG) uptake assay.
For sodium-dependent glucose transport assay, cells expressing hSGLT2 were seeded into a 96-well culture plate at a density of 5×10^4 cells/well in RPMI medium 1640 containing 10% fetal bovine serum. The cells were used 1 day after plating. They were incubated in pretreatment buffer (10 mM HEPES, 5 mM Tris, 140 mM choline chloride, 2 mM KCl, 1 mM CaCl2, and 1 mM MgCl2, pH 7.4) at 37° C. for 10 min. They were then incubated in uptake buffer (10 mM HEPES, 5 mM Tris, 140 mM NaCl, 2 mM KCl, 1 mM CaCl2, 1 mM MgCl2, and 1 mM ^14C-nonlabeled AMG pH 7.4) containing ^14C-labeled AMG (8 μM) and the inventive compound or dimethyl sulfoxide (DMSO) vehicle at 37° C. for 2 h. Cells were washed twice with washing buffer (pretreatment buffer containing 10 mM AMG at room temperature) and then the radioactivity was measured using a liquid scintillation counter. IC50 was determined by nonlinear regression analysis using GraphPad PRISM [Katsuno, K. et al. J. Pharmacol. Exp. Ther. 2007, 320, 323-330; Han, S. et al. Diabetes, 2008, 57, 1723-1729].

Test in series [1]: not given
This is another data set of the same source.

Sequence of human SGLT2 (P31639 whole entry): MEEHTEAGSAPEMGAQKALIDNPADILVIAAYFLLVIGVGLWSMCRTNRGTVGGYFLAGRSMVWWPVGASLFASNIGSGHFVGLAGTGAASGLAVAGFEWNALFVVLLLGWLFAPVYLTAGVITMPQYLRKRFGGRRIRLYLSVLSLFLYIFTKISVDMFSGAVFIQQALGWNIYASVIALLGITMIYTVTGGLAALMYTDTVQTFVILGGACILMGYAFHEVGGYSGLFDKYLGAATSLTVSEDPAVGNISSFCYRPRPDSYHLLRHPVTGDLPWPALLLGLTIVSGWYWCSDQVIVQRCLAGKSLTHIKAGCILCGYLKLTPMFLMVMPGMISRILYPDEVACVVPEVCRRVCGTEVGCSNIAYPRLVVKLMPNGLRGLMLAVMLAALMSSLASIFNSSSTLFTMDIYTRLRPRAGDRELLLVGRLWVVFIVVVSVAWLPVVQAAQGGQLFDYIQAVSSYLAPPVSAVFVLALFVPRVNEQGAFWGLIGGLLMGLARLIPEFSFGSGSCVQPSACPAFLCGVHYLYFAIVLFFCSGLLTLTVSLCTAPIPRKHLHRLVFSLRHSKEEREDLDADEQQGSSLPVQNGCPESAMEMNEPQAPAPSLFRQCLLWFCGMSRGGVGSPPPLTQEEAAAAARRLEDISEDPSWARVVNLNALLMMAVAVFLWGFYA

As usually defined, the IC50 is the point on the concentration scale where inhibition reaches its midpoint. Low values mean higher potency, high ones lower potency. As to `CCOc1ccc(Cc2cc3c(cc2Cl)OCCCCCCOC[C@H]2O[C@@H]3[C@H](O)[C@@H](O)[C@@H]2O)cc1` [Example 6, (10R,11S,12R,13R,14S)-17-Chloro-16-(4-ethoxybenzyl)-2,3,4,5,6,7,9,10,11,12,13,14-dodecahydro-10,14-epoxybenzo[i][1,8]dioxacyclohexadecine-11,12,13-triol], 3.63 nM corresponded to half-maximal inhibition against human SGLT2 (IC50).

With `CCc1ccc(Cc2cc3c(cc2Cl)OCCCCCOC[C@H]2O[C@@H]3[C@H](O)[C@@H](O)[C@@H]2O)cc1` [Example 9, (9R,10S,11R,12R,13S)-16-Chloro-15-(4-ethylbenzyl)-3,4,5,6,8,9,10,11,12,13-decahydro-2H-9,13-epoxybenzo[h][1,7]dioxacyclopentadecine-10,11,12-triol], on human SGLT2, inhibition was half-maximal at 1.38 nM (IC50). Consider `CCOc1ccc(Cc2cc3c(cc2Cl)OCCCCOC[C@H]2O[C@@H]3[C@H](O)[C@@H](O)[C@@H]2O)cc1` [Example 2, (8R,9S,10R,11R,12S)-15-Chloro-14-(4-ethoxybenzyl)-2,3,4,5,7,8,9,10,11,12-decahydro-2H-8,12-epoxybenzo[g][1,6]dioxacyclotetradecine-9,10,11-triol], for which inhibition against human SGLT2 was half-maximal at 2.27 nM (IC50). Against the preceding molecule, the IC50 is about 1.6-fold higher.

Molecule `CCc1ccc(Cc2cc3c(cc2Cl)OCCCCOC[C@H]2O[C@@H]3[C@H](O)[C@@H](O)[C@@H]2O)cc1` [Example 8, (8R,9S,10R,11R,12S)-15-Chloro-14-(4-ethylbenzyl)-2,3,4,5,7,8,9,10,11,12-decahydro-8,12-epoxybenzo[g][1,6]dioxacyclotetradecine-9,10,11-triol] came in with a half-maximal inhibitory concentration (IC50) against human SGLT2 of 1.4 nM. Molecule `CCOc1ccc(Cc2cc3c(cc2Cl)OCC=CCOC[C@H]2O[C@@H]3[C@H](OCc3ccccc3)[C@@H](OCc3ccccc3)[C@@H]2OCc2ccccc2)cc1` displayed a ring closure, isolated yield (from C=CCOC[C@H]1O[C@@H](c2cc(Cc3ccc(OCC)cc3)c(Cl)cc2OCC=C)[C@H](OCc2ccccc2)[C@@H](OCc2ccccc2)[C@@H]1OCc1ccccc1, rcm bond, 12-membered ring, Grubbs II (11 mol%), DCM, 9.6 mM, 60.0 °C) of 26%. The ring closure, yield of all isomers in series [1] (from C=CCOC[C@H]1O[C@@H](c2cc(Cc3ccc(OCC)cc3)c(Cl)cc2OCC=C)[C@H](OCc2ccccc2)[C@@H](OCc2ccccc2)[C@@H]1OCc1ccccc1, rcm bond, Grubbs 2nd generation catalyst, dichloromethane, 9.6 mM, 60.0 °C, 16.0 h) was determined as 26%. For the setting “from C=CCOC[C@H]1O[C@@H](c2cc(Cc3ccc(OCC)cc3)c(Cl)cc2OCC=C)[C@H](OC(C)=O)[C@@H](OC(C)=O)[C@@H]1OC(C)=O, rcm bond, 12-membered ring, Grubbs II (20 mol%), DCM, 5.0 mM, 60.0 °C”, `CCOc1ccc(Cc2cc3c(cc2Cl)OCC=CCOC[C@H]2O[C@@H]3[C@H](OC(C)=O)[C@@H](OC(C)=O)[C@@H]2OC(C)=O)cc1` came in with a ring closure, isolated yield of 23%. In series [1] (from C=CCOC[C@H]1O[C@@H](c2cc(Cc3ccc(OCC)cc3)c(Cl)cc2OCC=C)[C@H](OC(C)=O)[C@@H](OC(C)=O)[C@@H]1OC(C)=O, rcm bond, Grubbs 2nd generation catalyst, dichloromethane, 5.0 mM, 60.0 °C, 72.0 h), this molecule gave a ring closure, yield of all isomers of 23%. `CCOc1ccc(Cc2cc3c(cc2Cl)OC[C@@H]2C[C@@H]2COC[C@H]2O[C@@H]3[C@H](O)[C@@H](O)[C@@H]2O)cc1` [Example 16, (4R,5S,6R,7R,8S)-11-Chloro-10-(4-ethoxybenzyl)-(1aS,14aR)-1a,2,4,5,6,7,8,9,10-octahydro-1H-4,8-epoxybenzo[g]cyclopropa[c][1,6]dioxacyclotetradecine-5,6,7-triol]: the IC50 at human SGLT2 came to 14 nM.

On human SGLT2, `CCOc1ccc(Cc2cc3c(cc2Cl)OC[C@H]2C[C@H]2COC[C@H]2O[C@@H]3[C@H](O)[C@@H](O)[C@@H]2O)cc1` [Example 15, (4R,5S,6R,7R,8S)-11-Chloro-10-(4-ethoxybenzyl)-(1aR,14aS)-1a,2,4,5,6,7,8,9,10-octahydro-1H-4,8-epoxybenzo[g]cyclopropa[c][1,6]dioxacyclotetradecine-5,6,7-triol] gave a 50% inhibitory concentration (IC50) of 2.3 nM. This IC50 lies about 6.1-fold lower than the previous one. The same measure, in the same setting: for `CSc1ccc(Cc2cc3c(cc2Cl)OCCCCCOC[C@H]2O[C@@H]3[C@H](O)[C@@H](O)[C@@H]2O)cc1` [Example 12, (9R,10S,11R,12R,13S)-16-Chloro-15-(4-(methylthio)benzyl)-3,4,5,6,8,9,10,11,12,13-decahydro-2H-9,13-epoxybenzo[h][1,7]dioxacyclopentadecine-10,11,12-triol] the value was 0.778 nM; for `CCOc1ccc(Cc2cc3c(cc2Cl)OCCCCCOC[C@H]2O[C@@H]3[C@H](O)[C@@H](O)[C@@H]2O)cc1` [Example 3, (9R,10S,11R,12R,13S)-16-Chloro-15-(4-ethoxybenzyl)-3,4,5,6,8,9,10,11,12,13-decahydro-2H-9,13-epoxybenzo[h][1,7]dioxacyclopentadecine-10,11,12-triol], 0.899 nM; for `O[C@@H]1[C@@H](O)[C@H]2O[C@H](COCCCCCOc3cc(Cl)c(Cc4ccc5c(c4)OCCO5)cc32)[C@H]1O` [Example 14, (9R,10S,11R,12R,13S)-16-Chloro-15-((2,3-dihydrobenzo[b][1,4]dioxin-6-yl)-methyl)-3,4,5,6,8,9,10,11,12,13-decahydro-2H-9,13-epoxybenzo[h][1,7]dioxacyclopentadecine-10,11,12-triol], 1.38 nM. For the molecule `CCc1ccc(Cc2cc3c(cc2Cl)OCCCCCCOC[C@H]2O[C@@H]3[C@H](O)[C@@H](O)[C@@H]2O)cc1` [Example 10, (10R,11S,12R,13R,14S)-17-Chloro-16-(4-ethylbenzyl)-2,3,4,5,6,7,9,10,11,12,13,14-dodecahydro-10,14-epoxybenzo[i][1,8]dioxacyclohexadecine-11,12,13-triol], inhibition against human SGLT2 was half-maximal at 1.4 nM (IC50). Still for that read-out and setting: then `CSc1ccc(Cc2cc3c(cc2Cl)OCCCCOC[C@H]2O[C@@H]3[C@H](O)[C@@H](O)[C@@H]2O)cc1` [Example 11, (8R,9S,10R,11R,12S)-15-Chloro-14-(4-(methylthio)benzyl)-2,3,4,5,7,8,9,10,11,12-decahydro-8,12-epoxybenzo[g][1,6]dioxacyclotetradecine-9,10,11-triol], with 1.35 nM. `CCOc1ccc(Cc2cc3c(cc2Cl)OCCCCCOC[C@H]2O[C@@H]3[C@H](OCc3ccccc3)[C@@H](OCc3ccccc3)[C@@H]2OCc2ccccc2)cc1` had a ring closure, isolated yield (from CCOc1ccc(Cc2cc([C@@H]3O[C@H](COCCCCCI)[C@@H](OCc4ccccc4)[C@H](OCc4ccccc4)[C@H]3OCc3ccccc3)c(O)cc2Cl)cc1, ether bond, 13-membered ring, K2CO3/18-crown-6, toluene, 10.0 mM, 25.0 °C) of 64%. The same molecule returned a ring closure, yield of all isomers in series [1] (from CCOc1ccc(Cc2cc([C@@H]3O[C@H](COCCCCCI)[C@@H](OCc4ccccc4)[C@H](OCc4ccccc4)[C@H]3OCc3ccccc3)c(O)cc2Cl)cc1, ether bond, potassium carbonate / 18-crown-6, toluene, 10.0 mM, 25.0 °C, 16.0 h) of 64%. The molecule `CCOc1ccc(Cc2cc3c(cc2Cl)OC/C=C\COC[C@H]2O[C@@H]3[C@H](O)[C@@H](O)[C@@H]2O)cc1` [Example 1, (8R,9S,10R,11R,12S)-15-Chloro-14-(4-ethoxybenzyl)-2,5,7,8,9,10,11,12-octahydro-2H-8,12-epoxybenzo[g][1,6]dioxacyclotetradecine-9,10,11-triol] registered an IC50 at human SGLT2 of 0.974 nM. In other words, the sub-nanomolar range. `CCOc1ccc(Cc2cc3c(cc2Cl)OC[C@H]2C[C@H]2COC[C@H]2O[C@@H]3[C@H](OCc3ccccc3)[C@@H](OCc3ccccc3)[C@@H]2OCc2ccccc2)cc1`: the ring closure, isolated yield (from CCOc1ccc(Cc2cc([C@@H]3O[C@H](CO)[C@@H](OCc4ccccc4)[C@H](OCc4ccccc4)[C@H]3OCc3ccccc3)c(OC[C@H]3C[C@H]3CI)cc2Cl)cc1, ether bond, 12-membered ring, NaH, DMF, 47.0 mM, 25.0 °C) is 63%. Further, the ring closure, yield of all isomers in series [1] (from CCOc1ccc(Cc2cc([C@@H]3O[C@H](CO)[C@@H](OCc4ccccc4)[C@H](OCc4ccccc4)[C@H]3OCc3ccccc3)c(OC[C@H]3C[C@H]3CI)cc2Cl)cc1, ether bond, sodium hydride, N,N-dimethylformamide, 47.0 mM, 25.0 °C, 3.0 h) amounted to 63%. Molecule `O[C@@H]1[C@@H](O)[C@H]2O[C@H](COCCCCOc3cc(Cl)c(Cc4ccc5c(c4)OCCO5)cc32)[C@H]1O` [Example 13, (8R,9S,10R,11R,12S)-15-Chloro-14-((2,3-dihydrobenzo[b][1,4]dioxin-6-yl)-methyl)-2,3,4,5,7,8,9,10,11,12-decahydro-8,12-epoxybenzo[g][1,6]dioxacyclotetradecine-9,10,11-triol] gave a half-maximal inhibitory concentration (IC50) against human SGLT2 of 3.65 nM.

Values taken from patent US8921412B2, “C-aryl ansa SGLT2 inhibitors” (Green Cross Corporation, priority 2011, dated 2014).
